According to the supplement of paper PMC10307832:

Experiments:
Assay in all cases: relative viability (nuclei count vs DMSO), 5 days (fraction); higher = more cells survive
[1] = compound: C[C@]1(c2nc3c(C(N)=O)cccc3[nH]2)CCCN1 [Veliparib] + CS(=O)(=O)N1CCN(Cc2cc3nc(-c4cccc5[nH]ncc45)nc(N4CCOCC4)c3s2)CC1 [Pictilisib] (partner 1 µM)
Outline: (§1)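 Nuclei were stained with Hoechst during a one-step fixation (final 0.05% Triton X-100, 1% formaldehyde, 1 ug/ml Hoechst) carried out 5 days after dosing, then counted on 4× images. The cells, lung cancer lines in 1536-well plates, had been dosed by pin tool the day after seeding with one drug alone or a fixed anchor-drug dose plus five library-drug doses (not always all listed) in √10 steps. Relative viability is the nuclei count in treated wells divided by that in vehicle wells, and each value is the median of duplicate plates.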

[2] = compound: C[C@]1(c2nc3c(C(N)=O)cccc3[nH]2)CCCN1 [Veliparib] + O=C(c1cc(Cc2n[nH]c(=O)c3ccccc23)ccc1F)N1CCN(C(=O)C2CC2)CC1 [Olaparib] (partner 8 µM)
Outline: as §1

[3] = compound: COC1=CC=C(C=C1)CN2C=CC3=C2C=C(C=C3)C(=O)NO + CC(=O)c1c(C)c2cnc(Nc3ccc(N4CCNCC4)cn3)nc2n(C2CCCC2)c1=O [Palbociclib] (partner 0.5 µM)
Outline: as §1

[4] = compound: C[C@]1(c2nc3c(C(N)=O)cccc3[nH]2)CCCN1 [Veliparib] + CC(=O)c1c(C)c2cnc(Nc3ccc(N4CCNCC4)cn3)nc2n(C2CCCC2)c1=O [Palbociclib] (partner 0.5 µM)
Outline: as §1

Cell Line	relative viability ([1]; first compound 0.02 µM)	relative viability ([1]; first compound 0.06325 µM)	relative viability ([1]; first compound 0.2 µM)	relative viability ([1]; first compound 0.6325 µM)	relative viability ([1]; first compound 2 µM)	relative viability ([2]; first compound 0.02 µM)	relative viability ([2]; first compound 0.06325 µM)	relative viability ([2]; first compound 0.2 µM)	relative viability ([2]; first compound 0.6325 µM)	relative viability ([2]; first compound 2 µM)	relative viability ([3]; first compound 0.08 µM)	relative viability ([3]; first compound 0.253 µM)	relative viability ([3]; first compound 0.8 µM)	relative viability ([3]; first compound 2.53 µM)	relative viability ([3]; first compound 8 µM)	relative viability ([4]; first compound 0.02 µM)	relative viability ([4]; first compound 0.06325 µM)	relative viability ([4]; first compound 0.2 µM)	relative viability ([4]; first compound 0.6325 µM)	relative viability ([4]; first compound 2 µM)
201T	0.682	0.623	0.682	0.678	0.658	0.809	0.906	0.852	0.824	0.83	0.338	0.368	0.371	0.358	0.365	0.352	0.353	0.364	0.356	0.373
A549	0.526	0.504	0.476	0.455	0.521	0.308	0.375	0.223	0.314	0.407										
A-427	0.676	0.734	0.675	0.632	0.625	0.575	0.697	0.78	0.656	0.737	0.291		0.538	0.494	0.501	0.507	0.51	0.529	0.5	0.593
ABC-1		0.702	0.609	0.735	0.851			0.8	0.874	0.586		0.768	0.713	0.77	0.615			0.863	0.694	0.405
BEN	0.517	0.572	0.594	0.577	0.628	0.799	1.15	1.12	0.92	1	0.468	0.466	0.487	0.52	0.489	0.466	0.491	0.479	0.5	0.465
CAL-12T	0.439	0.395	0.522	0.386	0.351	0.723	0.727	0.696	0.649	0.712	0.424	0.517	0.585	0.325	0.566	0.179	0.301	0.402	0.382	0.58
COR-L23	0.722	0.645	0.697	0.536	0.774	0.376	0.247	0.329	0.295	0.355	0.23	0.323	0.316	0.29	0.26	0.27	0.237	0.252	0.25	0.27
COR-L 105	0.364	0.388	0.351	0.391	0.56	0.689	0.519	0.732	0.608	0.731	0.33	0.435	0.449	0.416	0.397	0.402	0.47	0.4	0.375	0.444
Calu-6	1.02	0.887	0.892	0.816	0.85	0.646	0.565	0.606	0.491	0.664										
ChaGo-K-1		0.55	0.86	0.914	0.718	0.362	0.447	0.429	0.387	0.443		0.914	0.928	0.904	0.874	0.712	0.951	1.02	0.892	0.944
EBC-1	0.439	0.38	0.477	0.318	0.42	0.748	0.622	0.731	0.655	0.756										
EKVX	0.427	0.464	0.465	0.361	0.397		0.911	0.889	0.72	0.867		0.408	0.387	0.384	0.351		0.42	0.403	0.373	0.383
EMC-BAC-2	0.483	0.542	0.569	0.524	0.541	0.539	0.427	0.483	0.455	0.495	0.401		0.528	0.511	0.459	0.527	0.487	0.512	0.486	0.544
EPLC-272H		0.227	0.283	0.278	0.0962		0.764	1.05	0.733	0.715		0.325	0.314	0.311	0.319		0.355	0.35	0.317	0.302
H3255	0.476	0.514	0.48	0.458	0.499	0.544	0.61	0.534	0.567	0.553	0.301	0.304	0.316	0.311	0.32	0.344	0.309	0.298	0.304	0.358
HARA	0.498	0.49	0.244	0.398	0.415	0.931		0.857	0.858	0.722	0.153	0.218	0.243	0.3	0.238	0.352	0.174	0.308	0.327	0.265
HCC-15	0.581	0.748	0.682	0.691	0.662	0.756	0.649	0.726	0.686	0.706	0.712	0.716	0.733	0.745	0.739	0.679	0.675	0.782	0.703	0.718
HCC-44	0.63	0.566	0.577	0.544	0.644	1.02	0.924	0.975	0.932	1	0.936	0.926	1.01	0.978	0.969	1	0.834	0.996	0.964	1.01
HCC-78	0.226	0.222	0.267	0.236	0.231	0.755	0.745	0.82	0.742	0.806	0.437	0.473	0.45	0.496	0.452	0.459	0.458	0.454	0.456	0.442
HCC-366	0.114	0.15	0.122	0.152	0.15	0.431	0.374	0.401	0.303	0.353	0.339	0.372	0.38	0.367	0.389	0.352	0.371	0.369	0.371	0.341

Cell Line	relative viability ([1]; first compound 0.02 µM)	relative viability ([1]; first compound 0.06325 µM)	relative viability ([1]; first compound 0.2 µM)	relative viability ([1]; first compound 0.6325 µM)	relative viability ([1]; first compound 2 µM)	relative viability ([2]; first compound 0.02 µM)	relative viability ([2]; first compound 0.06325 µM)	relative viability ([2]; first compound 0.2 µM)	relative viability ([2]; first compound 0.6325 µM)	relative viability ([2]; first compound 2 µM)	relative viability ([3]; first compound 0.08 µM)	relative viability ([3]; first compound 0.253 µM)	relative viability ([3]; first compound 0.8 µM)	relative viability ([3]; first compound 2.53 µM)	relative viability ([3]; first compound 8 µM)	relative viability ([4]; first compound 0.02 µM)	relative viability ([4]; first compound 0.06325 µM)	relative viability ([4]; first compound 0.2 µM)	relative viability ([4]; first compound 0.6325 µM)	relative viability ([4]; first compound 2 µM)
HCC-827	0.936	0.957	1.01	0.984	1.06	0.629	0.634	0.561	0.585	0.615	0.448	0.481	0.442	0.504	0.442	0.458	0.459	0.51	0.176	0.454
HOP-62	0.705	0.79	0.818	0.548	0.738		0.347	0.364	0.342	0.383	0.321	0.442	0.431	0.413	0.493	0.384	0.333	0.483	0.343	0.368
IA-LM	0.444	0.364	0.374	0.306	0.367	0.896	0.702	0.743	0.678	0.74										
LC-2-ad		0.431	0.428	0.464	0.497	0.744	0.68	0.662	0.756	0.681	0.446	0.532	0.506	0.484	0.47	0.485	0.496	0.508	0.477	0.505
LCLC-97TM1	0.155	0.224	0.215		0.235	0.433	0.475	0.439	0.233	0.527		0.226	0.23	0.223	0.229	0.219	0.194	0.233	0.23	0.249
LCLC-103H	0.685	0.615	0.577	0.666	0.651	0.753	0.74	0.826	0.75	0.745	0.435	0.439	0.481	0.466	0.515	0.44	0.417	0.48	0.44	0.456
LK-2		0.486	0.618	0.607	0.625	0.696	0.629	0.659	0.757	0.85		0.821	0.832	0.582	0.699	0.662	0.608	0.707	0.616	0.779
LOU-NH91	0.506	0.436	0.563	0.528	0.531	0.882	0.901	0.978	0.876	0.95		0.537	0.548	0.574	0.529	0.538	0.546	0.552	0.574	0.538
LU99A	0.349	0.279	0.296	0.278	0.323	0.252	0.266	0.257	0.265	0.31		0.406	0.424	0.416	0.352	0.495	0.399	0.418	0.381	0.451
LXF-289	0.78	0.778	0.768	0.746	0.755	1	1.04	1.01	0.986	1.16		0.588	0.609	0.607	0.581	0.577	0.574	0.554	0.601	0.649
NCI-H23	0.598	0.477	0.451	0.449	0.563	0.34	0.338	0.345	0.355	0.314	0.393	0.611	0.556	0.496	0.461	0.546	0.428	0.445	0.486	0.516
NCI-H522						0.678	0.593	0.667	0.57	0.566		0.944	0.972	0.999	0.955	1.01	0.864	1.18	1.11	1
NCI-H596	0.394	0.35	0.4	0.362	0.416	0.832	0.587	0.75	0.7	0.738										
NCI-H1299	0.985	0.703	0.779	0.751	0.765	1.03	0.949	0.925	0.963	1.03										
NCI-H1563	0.642	0.635	0.625	0.675	0.595															
NCI-H1648						0.948			0.7	0.919	0.254	0.309	0.298	0.277	0.269	0.257			0.232	0.274
NCI-H1703	0.267	0.267	0.23	0.254	0.216	0.514	0.292	0.397	0.56	0.501										
NCI-H2342						0.383	0.461	0.469	0.41	0.474	0.467	0.586	0.52	0.538	0.559	0.482	0.581	0.503	0.522	0.491
SW 900							0.724	0.939	0.722	0.818	0.491	0.564	0.565	0.525	0.51		0.516	0.557	0.539	0.56
